Source: patent US20240091210A1, “USE OF 5-[[4-[2-[5-ACETYLPYRIDIN-2-YL]ETHOXY]BENZYL]-1,3-THIAZOLIDINE-2,4-DIONE AND ITS SALTS” (Minoryx Therapeutics S.L., priority 2018, published 2024)
Like-named read-outs stand apart in the source and are kept apart here.

Experiments:
MDA MB231 KO cells = assay: Seahorse oxygen consumption rate (OCR), MDA MB231 KO cells (MPC2 deleted); type: cell-based; conditions: MPC activity genetically deleted
Method: (§1) To determine whether MIN-102 has any effect on pyruvate-mediated mitochondrial respiration, the extracellular flux analyzer Seahorse was used as described in Compan et al.. Seahorse experiments were performed in the following cell lines: HeLa (Cervix cancer cells), A549 (lung cancer cells), wild type MDA MB 231, and MDA MB 231 in which MPC2 has been deleted, leading to inactivation of the MPC (MDA MB231 KO). MDA MB231 cells are epithelial breast cancer cells. Cells were incubated with increasing concentrations of the compounds for one hour at 37° C. before oxygen consumption rate (OCR) measurements. The Seahorse analyzer allowed to measure basal and maximal respiration measured upon depolarization with 1 μM CCCP. […] The KO cells have been deleted of the MPC2 gene and therefore they display no MPC activity. The top panel show a representative experiment of either wild type (WT) or KO cell lines. […] OCR values are expressed as ratios of OCR in the presence of different concentrations of the tested compound over the OCR in PBS alone.

adiponectin = assay: Plasma adiponectin levels in rats (ELISA), measure of PPAR gamma engagement; type: in vivo, Sprague Dawley rats; conditions: 54 mg/Kg/day for 7 days, plasma 1 h after last dose, vs vehicle
Method: Evaluation of effect of MIN-102 on adiponectin was performed in Sprague Dawley wild type rats as a measure of PPAR gamma engagement. The rats were treated for 7 days with increasing doses of MIN-102 at 54 mg/Kg/day. Plasma were obtained at 1 h after the last MIN-102 administration. Adiponectin levels were measured by ELISA. Results were represented as mean+standard error of the mean of n=8. Data were analyzed by Kruskal-Wallis followed by the Dunn post-hoc test versus the vehicle group (**** p<0.0001).

[1] = Minimal effective exposure in mice (dose calculation); type: in vivo; conditions: said to correspond to 50 mg/kg
Method: It can be assumed that dose-exposure is linear. The minimal effective exposure of 5-[[4-[2-[5-(1-hydroxyethyl)pyridin-2-yl]ethoxy]phenyl]methyl]-1,3-thiazolidine-2,4-dione hydrochloride is 130 μg·h/mL in mice which corresponds to administration of 50 mg/kg of 5-[[4-[2-[5-(1-hydroxyethyl)pyridin-2-yl]ethoxy]phenyl]methyl]-1,3-thiazolidine-2,4-dione hydrochloride to mice. It follows that the dose to achieve this exposure in mice is […].

[2] = system: MCD diet NASH mouse model; assay: Methionine Choline Deficient (MCD) diet NASH mouse model; type: in vivo, C57BL6/J male mice; conditions: 62.5 mg/kg BID oral, 7 weeks
Method: The preventive effects of MIN-102 was evaluated in a 7-week Methionine Choline Deficient (MCD) diet NASH mouse model (Verdelho Machado et al.). After the acclimation period, C57BL6/J male mice (n=20) were weighed and randomized into 2 homogenous treatment groups based on body weight (n=10/group), put on a MCD diet, and treated BID orally with vehicle or MIN-102 for 7 weeks. MIN-102 was dosed 62.5 mg/kg BID orally by gavage. After the acclimation period, C57BL6/J male mice (n=20) were weighed and randomized into 2 homogenous treatment groups based on body weight (n=10/group), put on a MCD diet, and treated BID orally with a vehicle or MIN-102 (125 mg/Kg/day) for 7 weeks. Body weight was measured 3 times/week until the end of the experimental phase. At 7 weeks of diet/treatment, mice were weighed and treated at ˜08:00 am in the morning, then bled (maximal volume/EDTA) at ˜1:00 pm. Plasma was then immediately isolated and stored at −80° C. prior to assay plasma ALT and AST. The plasma volume left over was stored at −80° C. for eventual additional analysis. After blood collection, the mice were sacrificed by cervical dislocation under isoflurane anesthesia and exsanguinated with sterile saline. A NAFLD scoring system (NAS) adapted from Kleiner et al. (Hepatology. 41(6):1313-1321 (2005)) using the criteria described in the Table 1 below: Several other histopathological observations described in clinical human cases and originally reported in the NAS scoring system published by Kleiner et al. were not observed in this animal study, such as lipogranuloma, acidophil bodies, megamitochondria, and pigmented macrophages. Therefore, it was elected not to include them in the scoring system described above. An individual mouse NAS total score was calculated for each animal by summing up the score for (1) hepatocellular steatosis, (2) liver inflammation, (3) lobular fibrosis, and (4) hepatocyte ballooning. Histology analysis was performed (oil red O, H&E and Sirius Red staining) for NAFLD scoring system (NAS) for liver steatosis, inflammation, fibrosis and hepatocyte ballooning.

[3] = system: wild type MDA MB231 cells; assay: Seahorse oxygen consumption rate (OCR), wild type MDA MB231 cells; type: cell-based
Method: as §1

[4] = Multiple ascending dose (MAD) study in human subjects; type: in vivo; conditions: for Cmax: in vivo, steady state day 8, human, read-out: mean Cmax ss

## CC(O)c1ccc(CCOc2ccc(CC3SC(=O)NC3=O)cc2)nc1.Cl (racemic) [MIN-102, 5-[[4-[2-[5-(1-hydroxyethyl)pyridin-2-yl]ethoxy]phenyl]methyl]-1,3-thiazolidine-2,4-dione hydrochloride]
MDA MB231 KO cells
  effect on oxygen consumption: does not inhibit oxygen consumption
adiponectin
  plasma adiponectin levels: significantly increased
[1]
  minimal effective exposure: 130 µg·h/mL
[2]
  hepatic cholesterol levels: did not show a change
  liver inflammation: total disappearance
[2]; day 14 to day 50, vs vehicle
  body weight loss: less severe decline in body weight loss
[2]; vs vehicle, p<0.001
  oil red o staining %: extremely low
  reduction in hepatic triglycerides levels: 92%
  steatosis score: blunted
[2]; vs vehicle, p<0.01
  reduction of plasma ALT level: 78%
  reduction of plasma AST level: 55%
[2]; vehicle 3.40±0.3, p<0.001
  mean NAS group score: 0.44±01
[3]
  effect on oxygen consumption: inhibits oxygen consumption in a MPC dependent manner
[4]; 135 mg and 270 mg, human
  change in clearance with time: no change in clearance with time
[4]; 135 mg
  Cmax: 9490 ng/mL
[4]; 270 mg
  Cmax: 17200 ng/mL
[4]; target AUCss 200 μg·h/mL, line of best fit of day 8 Cmin ss vs AUCss
  Cmin ss associated with the target AUCss: 5716 ng/mL
